Experiments:
Type in all cases: in vivo
[1] = test system: mustard beetle larvae (Phaedon cochleariae); test: Phaedon larvae test; conditions: active compound concentration 0.1%; after 7 days; dipped cabbage leaves (Brassica oleracea)
Description: Phaedon larvae Test Solvent: 7 parts by weight of dimethylformamide Emulsifier: 1 part by weight of alkylaryl polyglycol ether To produce a suitable preparation of active compound, 1 part by weight of active compound is mixed with the stated amount of solvent and the stated amount of emulsifier, and the concentrate is diluted with water to the desired concentration. Cabbage leaves (Brassica oleracea) are treated by being dipped into the preparation of the active compound of the desired concentration and are infested with mustard beetle larvae (Phaedon cochleariae), while the leaves are still moist. […] 100% means that all the beetle larvae have been killed; 0% means that none of the beetle larvae have been killed.

[2] = test system: green rice leafhopper (Nephotettix cincticeps); test: Nephotettix test; conditions: active compound concentration 0.1%; after 6 days; dipped rice seedlings (Oryza sativa)
Description: (§1) Nephotettix Test Solvent: 7 parts by weight of dimethylformamide Emulsifier: 1 part by weight of alkylaryl polyglycol ether To produce a suitable preparation of active compound, 1 part by weight of active compound is mixed with the stated amount of solvent and the stated amount of emulsifier, and the concentrate is diluted with water to the desired concentration. Rice seedlings (Oryza sativa) are treated by being dipped into the preparation of the active compound of the desired concentration and are infested with the green rice leafhopper (Nephotettix cincticeps) while the leaves are still moist. After the specified period of time, the destruction in % is determined. 100% means that all the leafhoppers have been killed; 0% means that none of the leafhoppers have been killed.

[3] = test system: common spider mite or two-spotted spider mite (Tetranychus urticae); test: Tetranychus test (OP-resistant/dipping treatment); conditions: active compound concentration 0.1%; after 13 days; dipped infested bean plants (Phaseolus vulgaris)
Description: Tetranychus Test (OP-resistant/dipping Treatment)
Solvent: 7 parts by weight of dimethylformamide
Emulsifier: 1 part by weight of alkylaryl polyglycol ether
To produce a suitable preparation of active compound, 1 part by weight of active compound is mixed with the stated amount of solvent and the stated amount of emulsifier, and the concentrate is diluted with water to the desired concentration.
Bean plants (Phaseolus vulgaris) which have been heavily infested with the common spider mite or two-spotted spider mite (Tetranychus urticae) in all stages of development are treated by being dipped into the preparation of the active compound of the desired concentration.
After the specified period of time, the destruction in % is determined. 100% means that all the spider mites have been killed; 0% means that none of the spider mites have been killed.

[4] = test system: peach aphid (Myzus persicae); test: Myzus test; conditions: active compound concentration 0.1%; after 6 days; dipped infested cabbage leaves (Brassica oleracea)
Description: as §1, with “Myzus” for “Nephotettix”, “Cabbage leaves (Brassica oleracea) which have been heavily infested with the peach aphid (Myzus persicae)” for “Rice seedlings (Oryza sativa)”, “concentration.” for “concentration and are infested with the green rice leafhopper (Nephotettix cincticeps) while the leaves are still moist.”, “aphids” for “leafhoppers”

[5] = test system: caterpillars of the diamond-back moth (Plutella xylostella); test: Plutella test; conditions: active compound concentration 0.1%; after 7 days; dipped cabbage leaves (Brassica oleracea)
Description: Plutella Test Solvent: 7 parts by weight of dimethylformamide Emulsifier: 1 part by weight of alkylaryl polyglycol ether To produce a suitable preparation of active compound, 1 part by weight of active compound is mixed with the stated amount of solvent and the stated amount of emulsifier, and the concentrate is diluted with water to the desired concentration. Cabbage leaves (Brassica oleracea) are treated by being dipped into the preparation of the active compound of the desired concentration and are infested with caterpillars of the diamond-back moth (Plutella xylostella) while the leaves are still moist. After the specified period of time, the destruction in % is determined. 100% means that all the caterpillars have been killed; 0% means that none of the caterpillars have been killed.

Cc1cc(Br)cc(C)c1C1=C(O)C2(CCCC(C)C2)NC1=O (stereo not drawn) [Example I-1-a-1]
100%: destruction in % [1] | destruction in % [2]

Cc1cc(C)c(C2=C(O)C3(CCCCC3)OC2=O)c(Br)c1 [Example I-2-a-1]
100%: action (destruction in %) [3] | destruction in % [1] | destruction in % [4] | destruction in % [2]

Cc1cc(C)c(C2=C(OC(=O)C(C)(C)C)C3(CCCCC3)OC2=O)c(Br)c1 [Example I-2-b-1]
100%: destruction in % [1] | destruction in % [5] | destruction in % [2]
